Reference: patent US6967196B1, “Sulfonamide compounds and uses thereof” (Bristol-Myers Squibb Company, priority 1999, dated 2005)
pIC50: −log10 of the molar value. Where a name gives a salt, the structure may show the parent alone.

These compounds were tested on amyloid β production in transfected H4 (human neuroglioma) cells stably expressing APP constructs (assay: In vitro cell-based assay of inhibitors of amyloid β production (ELISA)). Conditions: Homo sapiens, 16 h, transfected H4 cells expressing APP, approximately 16 hours incubation, amyloid β in medium by ELISA; read-out: ACTIVITY (IC50, inhibition of amyloid β production).
Method in brief: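 Cells expressing wild-type or variant APP were plated ≥6 h before medium was replaced with compound-containing medium (initial screen 10-100 μM) and incubated ~16 h. Secreted Aβ in medium was quantified by sandwich ELISA (C-terminal-specific mouse monoclonal capture, N-terminal rabbit polyclonal detection) against an Aβ standard curve.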

Row | pIC50 | Compound
1 | < 6.30 | Cc1ccc(CCNC(=O)[C@@H](C)N(c2cc(Cl)ccc2F)S(=O)(=O)c2ccc(Cl)cc2)cc1 [Example 1325]
2 | 6.30 to 7.00 | C[C@H](C(=O)NC(C)(C)CO)N(c1cc(Cl)ccc1F)S(=O)(=O)c1ccc(Cl)cc1 [Example 1344]

Same assay, conditions: Homo sapiens, 16 h, transfected H4 cells stably expressing APP constructs; approximately 16 hours incubation; amyloid β in medium by ELISA; read-out: ACTIVITY (IC50, inhibition of amyloid β production)

Row | pIC50 | Compound
3 | ≥ 7.60 | C[C@H](CCCS(=O)(=O)N1CCC1)N(c1cc(Cl)ccc1Cl)S(=O)(=O)c1ccc(Cl)cc1 [Example 1198, 4-chloro-N-[2,5-dichlorophenyl]-N-[4-[(1-azetidinyl)sulfonyl]-1(R)-methylbutyl]benzenesulfonamide]
4 | ≥ 7.60 | C[C@H](CCCS(=O)(=O)N(C)C)N(c1cc(Cl)ccc1Cl)S(=O)(=O)c1ccc(Cl)cc1 [Example 1201, 4-chloro-N-[2,5-dichlorophenyl]-N-[4-[(dimethylamino)sulfonyl]-1(R)-methylbutyl]benzenesulfonamide]
5 | 6.30 to 7.00 | C[C@H](CCCS(=O)(=O)O)N(c1cc(Cl)ccc1F)S(=O)(=O)c1ccc(Cl)cc1 [Example 1192, (4R)-4-[N-[5-chloro-2-fluorophenyl][(4-chlorophenyl)sulfonyl]amino]pentylsulfonic acid]

Same assay, conditions: Homo sapiens, 16 h, transfected H4 cells stably expressing APP; approximately 16 hours incubation; amyloid β in medium by ELISA; Table B; read-out: ACTIVITY (IC50, inhibition of amyloid β production)

Row | pIC50 | Compound
6 | 7.00 to 7.30 | O=C1CCC(=O)N1CCCOc1ccccc1CN(c1cc(F)ccc1F)S(=O)(=O)c1ccc(Cl)cc1 [Example 399, 4-chloro-N-(2,5-difluorophenyl)-N-{2-[3-(2,5-dioxo-1-pyrrolidinyl)propoxy]benzyl}benzenesulfonamide]

Same assay, conditions: Homo sapiens, 16 h, transfected H4 cells stably expressing APP; approximately 16 hours incubation; amyloid β in medium by ELISA; read-out: ACTIVITY (IC50, inhibition of amyloid β production)

Row | pIC50 | Compound
7 | 6.30 to 7.00 | O=S(=O)(c1ccc(Cl)cc1)N(Cc1ccccc1OCCCN1CCOCC1)c1ccccc1 [Example 859, 4-chloro-N-{2-[3-(4-morpholinyl)propoxy]benzyl}-N-phenylbenzenesulfonamide hydrochloride]
8 | < 6.30 | O=S(=O)(c1ccc(Cl)cc1)N(Cc1ccccc1OCCCSc1ccccc1)c1cc(F)ccc1F [Example 982, 4-chloro-N-(2,5-difluorophenyl)-N-{2-[3-(phenylsulfanyl)propoxy]benzyl}benzenesulfonamide]
9 | < 6.30 | CCC(c1ccccc1OCCCN1CCCCC1)N(c1cc(F)ccc1F)S(=O)(=O)c1ccc(Cl)cc1 (stereo not drawn) [Example 878, 4-chloro-N-(2,5-difluorophenyl)-N-(1-{2-[3-(1-piperidinyl)propoxy]phenyl}propyl)benzenesulfonamide hydrochloride]

Same assay, conditions: Table B; transfected H4 cells stably expressing APP; approximately 16 hours incubation; amyloid β in medium by ELISA; read-out: ACTIVITY (inhibitory concentration IC50, inhibition of amyloid β production)

Row | pIC50 | Compound
10 | ≥ 7.60 | C[C@H](CCOC(c1ccccc1)(c1ccccc1)c1ccccc1)N(c1cc(Cl)ccc1Cl)S(=O)(=O)c1ccc(Cl)cc1 [Example 26, 4-Chloro-N-(2,5-dichlorophenyl]-N-[1(R)-methyl-(3-triphenylmethyloxy)-propyl]benezenesulfonamide]

Same assay, conditions: transfected H4 cells stably expressing APP constructs; approximately 16 hours incubation; amyloid β in medium by ELISA; read-out: ACTIVITY (IC50, inhibition of amyloid β production)

Row | Compound | pIC50
11 | CSC1CCN(CC[C@@H](C)N(c2cc(Cl)ccc2Cl)S(=O)(=O)c2ccc(Cl)cc2)CC1 [Example 1156, 4-chloro-N-(2,5-dichlorophenyl)-N-[3-[(4-methylthio)-1-piperidinyl]-1(R)-methylpropyl]benzenesulfonamide] | 6.30 to 7.00
12 | C[C@H](CCCN1CCCC(S(C)(=O)=O)C1)N(c1cc(Cl)ccc1Cl)S(=O)(=O)c1ccc(Cl)cc1 (stereo partly drawn) [Example 1108, 4-chloro-N-(2,5-dichlorophenyl)-N-[4-[(3-methylsulfonyl)-1-piperidinyl]-1(R)-methylbutyl]benzenesulfonamide] | ≥ 7.60
13 | 4-chloro-N-(2,5-dichlorophenyl)-N-[5-(1,1-dioxido-4-thiomorpholinyl)-1(R)-methylpropyl]benzenesulfonamide [Example 1104] | ≥ 7.60
14 | COC(=O)[C@@H](CC(C)C)NC(=O)CCC[C@@H](C)N(c1cc(Cl)ccc1F)S(=O)(=O)c1ccc(Cl)cc1 [Example 1267, (R)-4-Chloro-N-(5-chloro-2-fluorophenyl)-N-[5-[N-(R)-[1-(methoxycarbonyl)-3-methylbutyl]amino]-1-methyl-5-oxopentyl]benzenesulfonamide] | 7.30 to 7.60
15 | CC(C)Oc1c(NCCC[C@@H](C)N(c2cc(F)ccc2F)S(=O)(=O)c2ccc(Cl)cc2)c(=O)c1=O [Example 1120, 4-chloro-N-(2,5-difluorophenyl)-N-[4-(2-isopropoxy-3,4-dioxo-1-cyclobutenyl)amine-1(R)-methylbutyl]benzenesulfonamide] | 7.30 to 7.60

Same assay, conditions: transfected H4 cells stably expressing APP; approx. 16 h incubation; amyloid β in medium by ELISA; read-out: ACTIVITY (IC50, inhibition of amyloid β production)

Row | Compound | pIC50
16 | 3-chloro-N-{3-[2-(1-{[(4-chlorophenyl)sulfonyl]-2,5-difluoroanilino}ethyl)phenoxy]propyl}-N-methylbenzamide [Example 688] | 6.30 to 7.00
17 | 2-((1R)-1-{[(4-chlorophenyl)sulfonyl]-2,5-difluoroanilino}ethyl)-5-fluorobenzyl 2-phenylethylcarbamate [Example 640] | 6.30 to 7.00
18 | N-{3-[2-(1-{[(4-chlorophenyl)sulfonyl]-2,5-difluoroanilino}ethyl)phenoxy]propyl}-N,2-dimethylbenzamide [Example 693] | 6.30 to 7.00

Results, then the compound that gave them:

Row | pIC50 | Compound
19 | 6.30 to 7.00 | C[C@H](c1ccccc1CCOC(=O)NC1CCCCC1)N(c1cc(F)ccc1F)S(=O)(=O)c1ccc(Cl)cc1 [Example 685, 2-[2-((1R)-1-{3-[2-(1-{[(4-chlorophenyl)sulfonyl]-2,5-difluoroanilino}ethyl)phenyl]ethyl cyclohexylcarbamate]
20 | 6.30 to 7.00 | CCOc1ccc(C(=O)N(C)CCCOc2ccccc2C(C)N(c2cc(F)ccc2F)S(=O)(=O)c2ccc(Cl)cc2)cc1 (stereo not drawn) [Example 768]

Same assay, conditions: transfected H4 cells stably expressing APP; approximately 16 hours incubation; amyloid β in medium by ELISA; Table B; read-out: ACTIVITY (IC50, inhibition of amyloid β production)

Row | Compound | pIC50
21 | O=S(=O)(c1ccc(Cl)cc1)N(Cc1ccccc1OCCCN1CC=CCC1)c1ccccc1 [Example 289, 4-Chloro-N-{2-[3-(3,6-dihydro-1(2H)pyridinyl)propoxy]benzyl}-N-phenylbenzenesulfonamide Hydrochloride] | 7.30 to 7.60

Same assay, conditions: transfected H4 cells stably expressing APP; approximately 16 hours incubation; amyloid β in medium by ELISA; read-out: ACTIVITY (IC50, inhibition of amyloid β production)

Row | pIC50 | Compound
22 | 6.30 to 7.00 | N-{3-[2-({[(4-chlorophenyl)sulfonyl]-2,5-difluoroanilino}methyl)phenoxy]propyl}-N-methyl-4-(trifluoromethoxy)benzamide [Example 873]
23 | < 6.30 | 4-chloro-N-{3-[2-(1-{[(4-chlorophenyl)sulfonyl]-2,5-difluoroanilino}ethyl)phenoxy]propyl}-2-nitrobenzamide [Example 947]
24 | < 6.30 | 2,4-dichloro-N-{3-[2-({[(4-chlorophenyl)sulfonyl]-2,5-difluoroanilino}methyl)phenoxy]propyl}-5-fluoro-N-methylbenzamide [Example 896]
25 | 6.30 to 7.00 | N-{2-[2-(1-{[(4-chlorophenyl)sulfonyl]-2,5-difluoroanilino}ethyl)phenoxy]ethyl}-3-cyclopentyl-N-ethylpropanamide [Example 857]
26 | 6.30 to 7.00 | N-{3-[2-({[(4-chlorophenyl)sulfonyl]-2,5-difluoroanilino}methyl)phenoxy]propyl}-2,4,5-trifluoro-N-methylbenzamide [Example 813]
27 | 6.30 to 7.00 | 4-chloro-N-{3-[2-(1-{[(4-chlorophenyl)sulfonyl]-2,5-difluoroanilino}ethyl)phenoxy]propyl}benzamide [Example 811]
28 | 6.30 to 7.00 | 2-((1R)-1-{[(4-chlorophenyl)sulfonyl]-2,5-difluoroanilino}ethyl)benzyl benzyl[2-(dimethylamino)ethyl]carbamate [Example 838]
29 | < 6.30 | 2-[2-(1-{[(4-chlorophenyl)sulfonyl]-2,5-difluoroanilino}ethyl)phenoxy]-N-methylacetamide [Example 1064]

Row | Compound | pIC50
30 | tert-butyl 4-{3-[2-({[(4-chlorophenyl)sulfonyl]anilino}methyl)phenoxy]propyl}-1-piperazinecarboxylate hydrochloride [Example 1028] | < 6.30
